# Assay results as given in PMC3909880 (Nature communications, 2013).
# Tested on: M. tuberculosis IAR2 mutant (mmpL3 S288T)
# Format: cell-based, Mycobacterium tuberculosis
Molecule,MIC for IAR2 [µg/mL],Fold change in MIC for IAR2
NCC[C@H](O)C(=O)N[C@@H]1C[C@H](N)[C@@H](O[C@H]2O[C@H](CN)[C@@H](O)[C@H](O)[C@H]2O)[C@H](O)[C@H]1O[C@H]1O[C@H](CO)[C@@H](O)[C@H](N)[C@H]1O [Amikacin],1,
CC[C@@H](CO)NCCN[C@@H](CC)CO [Ethambutol],1,
NNC(=O)c1ccncc1 [Isoniazid],0.04,
NC[C@H]1O[C@H](O[C@H]2[C@H](O)[C@@H](O[C@H]3O[C@H](CO)[C@@H](O)[C@H](N)[C@H]3O)[C@H](N)C[C@@H]2N)[C@H](O)[C@@H](O)[C@@H]1O [Kanamycin],2,
C[C@H]1COc2c(N3CCN(C)CC3)c(F)cc3c(=O)c(C(=O)O)cn1c23 [Levofloxacin],0.25,
CO[C@H]1/C=C/O[C@@]2(C)Oc3c(C)c(O)c4c(O)c(c(/C=N/N5CCN(C)CC5)c(O)c4c3C2=O)NC(=O)/C(C)=C\C=C\[C@H](C)[C@H](O)[C@@H](C)[C@@H](O)[C@@H](C)[C@H](OC(C)=O)[C@@H]1C [Rifampin],0.03125,0.25
CC(C)=CCC/C(C)=C/CNCCNC1C2CC3CC(C2)CC1C3 (stereo not shown) [SQ109],4,16
Capreomycin,1,
